{
  "source": "patent US20240002229A1",
  "about": "“DEVICE FOR ENHANCING REACTION POTENTIAL OF OXIDIZING AGENTS” (Bis Science LLC, priority 2022, published 2024)",
  "format_in_all_cases": "cell-based",
  "key": {"E. coli": {"test_system": "E. coli", "test": "Microbial reduction by stored photon enhanced solution versus un-exposed hydrogen peroxide", "details": "samples at 4 weeks post exposure to photons; control not exposed"}, "[1]": {"test_system": "Staphylococcus epidermidis ATCC 12228", "test": "Residual effect test on inoculated agar carrier (Table 4)", "experimental": "The test substance or PEOA was applied to target which consisted of a microbe inoculated agar plate. The application of the PEOA can be by means such as a dropper, fog, mist or spray or any other acceptable means. […] PEOA was applied to inoculated plates at intervals of 1 minute, 5 minutes, 10 minutes, 30 minutes, 1 hour, 12 hours, 24 hours, 2, days, 5 days, and 7 days after radiation exposure. In one test, after 7 days, the PEOA was again subjected to photon emissions from 0.01 nm to 845 nm for the test labeled reactivation. An additional photon and or phonon exposure similar to the initial enhancement by photon and or phonons of 0.01 nm through 845 nm was the reactivation dose of photons."}, "microbial counts": {"test_system": "microbial counts", "test": "Independent research lab testing, microbial reduction, 5 minute contact time", "details": "1 part per million, 5 minute contact time with the ambient air", "procedure": "A small micron PEOA antimicrobial dry fog is administered into the ambient air through an existing HVAC system and device at a concentration of less than 1 part per million."}},
  "data": [
    {"smiles": "OO", "note": "[hydrogen peroxide]", "values": [
      {"measurement": "microbial (E. coli) reduction", "setting": "E. coli", "result": 23.08, "unit": "%"}
    ]},
    {"smiles": "OO", "note": "[Control, hydrogen peroxide]", "values": [
      {"measurement": "CFU/carrier", "setting": "[1]; Control, time after radiation exposure N/A", "result": "6.04E+05", "unit": "CFU/carrier"},
      {"measurement": "CFU/carrier", "setting": "[1]; applied to carrier 2 Days after radiation exposure", "result": "3.00E+05", "unit": "CFU/carrier"},
      {"measurement": "CFU/carrier", "setting": "[1]; applied to carrier 5 Days after radiation exposure", "result": "4.50E+04", "unit": "CFU/carrier"},
      {"measurement": "CFU/carrier", "setting": "[1]; applied to carrier 7 Days after radiation exposure", "result": "9.80E+04", "unit": "CFU/carrier"},
      {"measurement": "CFU/carrier", "setting": "[1]; applied to carrier 12 Hours after radiation exposure", "result": "9.20E+04", "unit": "CFU/carrier"},
      {"measurement": "CFU/carrier", "setting": "[1]; applied to carrier 24 Hours after radiation exposure", "result": "1.33E+05", "unit": "CFU/carrier"}
    ]},
    {"smiles": "OO", "note": "[standard hydrogen peroxide, hydrogen peroxide]", "values": [
      {"measurement": "microbial reduction", "setting": "microbial counts", "result": "little or no microbial reduction"}
    ]}
  ]
}
